Data published in patent publication US12129223B2, “Lipids for use in lipid nanoparticle formulations” (Acuitas Therapeutics, Inc., priority 2021, dated 2024).

What was measured:
[1] = Determination of pKa of formulated lipids (TNS fluorescence assay in lipid nanoparticles); assay type: physicochemical; details: lipid nanoparticles (compound/DSPC/cholesterol/PEG-lipid), lipid formulated in LNP (lipid/DSPC/cholesterol/PEG-lipid), pH at half-maximal intensity
Description: As described elsewhere, the pKa of formulated lipids is correlated with the effectiveness of LNPs for delivery of nucleic acids (see Jayaraman et al, Angewandte Chemie, International Edition (2012), 51(34), 8529-8533; Semple et al, Nature Biotechnology 28, 172-176 (2010)). In some embodiments, the preferred range of pKa is ˜5 to ˜7. The pKa of each lipid is determined in lipid nanoparticles using an assay based on fluorescence of 2-(p-toluidino)-6-napthalene sulfonic acid (TNS). Lipid nanoparticles comprising compound of structure (I)/DSPC/cholesterol/PEG-lipid (50/10/38.5/1.5 or 47.5:10:40.7:1.8 mol %) in PBS at a concentration of 0.4 mM total lipid are prepared using the in-line process as described in Example 1. TNS is prepared as a 100 μM stock solution in distilled water. Vesicles are diluted to 24 μM lipid in 2 mL of buffered solutions containing 10 mM HEPES, 10 mM MES, 10 mM ammonium acetate, and 130 mM NaCl, where the pH ranged from 2.5 to 11. An aliquot of the TNS solution is added to give a final concentration of 1 μM and following vortex mixing fluorescence intensity is measured at room temperature in a SLM Aminco Series 2 Luminescence Spectrophotometer using excitation and emission wavelengths of 321 nm and 445 nm. A sigmoidal best fit analysis is applied to the fluorescence data and the pKa is measured as the pH giving rise to half-maximal fluorescence intensity.

[2] = test system: luciferase expression in the liver; assay: Luciferase mRNA in vivo evaluation using lipid nanoparticle compositions; set-up: species or system mice; details: LNP with FLuc mRNA, tail vein injection, ng luciferase/g liver 4 hours after administration; for Liver Luc @ 0.3 mg/kg: 0.3 mg mRNA/kg; for Liver Luc @ 1.0 mg/kg: 1.0 mg mRNA/kg
Description: (§1) A lipid of structure (I), DSPC, cholesterol and PEG-lipid are solubilized in ethanol at a molar ratio of 50:10:38.5:1.5 or 47.5:10:40.7:1.8. Lipid nanoparticles (LNP) are prepared at a total lipid to mRNA weight ratio of approximately 10:1 to 40:1. Briefly, the mRNA is diluted to 0.2 mg/mL in 10 to 50 mM citrate buffer, pH 4 or 10 to 25 mM acetate buffer, pH 4. Syringe pumps are used to mix the ethanolic lipid solution with the mRNA aqueous solution at a ratio of about 1:5 to 1:3 (vol/vol) with total flow rates above 15 mL/min. The ethanol is then removed and the external buffer replaced with PBS by dialysis. Finally, the lipid nanoparticles are filtered through a 0.2 µm pore sterile filter.
Studies are performed in 6-8 week old female C57BL/6 mice (Charles River) 8-10 week old CD-1 (Harlan) mice (Charles River) according to guidelines established by an institutional animal care committee (ACC) and the Canadian Council on Animal Care (CCAC). Varying doses of mRNA-lipid nanoparticle are systemically administered by tail vein injection and animals euthanized at a specific time point (e.g., 4 hours) post-administration. Liver and spleen are collected in pre-weighed tubes, weights determined, immediately snap frozen in liquid nitrogen and stored at −80° C. until processing for analysis.
For liver, approximately 50 mg is dissected for analyses in a 2 mL FastPrep tubes (MP Biomedicals, Solon OH). ¼″ ceramic sphere (MP Biomedicals) is added to each tube and 500 μL of Glo Lysis Buffer—GLB (Promega, Madison WI) equilibrated to room temperature is added to liver tissue. Liver tissues are homogenized with the FastPrep24 instrument (MP Biomedicals) at 2×6.0 m/s for 15 seconds. Homogenate is incubated at room temperature for 5 minutes prior to a 1:4 dilution in GLB and assessed using SteadyGlo Luciferase assay system (Promega). Specifically, 50 μL of diluted tissue homogenate is reacted with 50 μL of SteadyGlo substrate, shaken for 10 seconds followed by 5 minute incubation and then quantitated using a CentroXS^3 LB 960 luminometer (Berthold Technologies, Germany). The amount of protein assayed is determined by using the BCA protein assay kit (Pierce, Rockford, IL). Relative luminescence units (RLU) are then normalized to total μg protein assayed. To convert RLU to ng luciferase a standard curve is generated with QuantiLum Recombinant Luciferase (Promega).
The FLuc mRNA (L-6107) from Trilink Biotechnologies will express a luciferase protein, originally isolated from the firefly, Photinus pyralis. FLuc is commonly used in mammalian cell culture to measure both gene expression and cell viability. It emits bioluminescence in the presence of the substrate, luciferin. This capped and polyadenylated mRNA is fully substituted with 5-methylcytidine and pseudouridine.
(§2) Representative compounds of the disclosure shown in Table 2 were formulated using the following molar ratio: 50% cationic lipid/10% distearoylphosphatidylcholine (DSPC)/38.5% Cholesterol/1.5% PEG lipid 2-[2-(ω-methoxy(polyethyleneglycol2000)ethoxy]-N,N-ditetradecyl acetamide) or 47.5% cationic lipid/10% DSPC/40.7% Cholesterol/1.8% PEG lipid. Relative activity was determined by measuring luciferase expression in the liver 4 hours following administration via tail vein injection as described in Example 1 or by measuring the amount of human IgG in mouse serum as described in example 2. The activity was compared at a dose of 1.0 or 0.5 or 0.3 mg mRNA/kg and expressed as ng luciferase/g liver measured 4 hours after administration, as described in Example 1 or as μg IgG/mL serum measured 24 hours after administration, as described in Example 2. Compound numbers in Table 2 refer to the compound numbers of Table 1.

[3] = test system: human IgG in mouse serum; assay: Immunoglobulin G (IgG) mRNA in vivo evaluation using lipid nanoparticle compositions; set-up: species or system mice; details: LNP with IgG mRNA, tail vein injection, serum 24 hours after administration; for Serum IgG @ 0.3 mg/kg: 0.3 mg mRNA/kg; for Serum IgG @ 1.0 mg/kg: 1.0 mg mRNA/kg
Description: as §1
Studies are performed in 6-8 week old CD-1/ICR mice (Envigo) according to guidelines established by an institutional animal care committee (ACC) and the Canadian Council on Animal Care (CCAC). Varying doses of mRNA-lipid nanoparticle are systemically administered by tail vein injection and animals euthanized at a specific time point (e.g., 24 hours) post-administration. The whole blood is collected, and the serum subsequentially separated by centrifuging the tubes of the whole blood at 2000×g for 10 minutes at 4° C. and stored at −80° C. until use for analysis.
For immunoglobulin G (IgG) ELISA (Life Diagnostics Human IgG ELISA kit), the serum samples are diluted at 100 to 15000 folds with 1×diluent solution. 100 μL of diluted serum is dispensed into anti-human IgG coated 96-well plate in duplicate alongside human IgG standards and incubated in a plate shaker at 150 rpm at 25° C. for 45 minutes. The wells are washed 5 times with 1× wash solution using a plate washer (400 μL/well). 100 μL of HRP conjugate is added into each well and incubated in a plate shaker at the same condition above. The wells are washed 5 times again with 1× wash solution using a plate washer (400 μL/well). 100 μL of TMB reagent is added into each well and incubated in a plate shaker at the same condition above. The reaction is stopped by adding 100 μL of Stop solution to each well. The absorbance is read at 450 nm (A450) with a microplate reader. The amount of human IgG in mouse serum is determined by plotting A450 values for the assay standard against human IgG concentration.
as §2

Row | pKa [1] | Compound | Liver Luc @ 0.3 mg/kg [2] | Liver Luc @ 1.0 mg/kg [2] | Serum IgG @ 0.3 mg/kg [3] | Serum IgG @ 1.0 mg/kg [3]
1 | 6.54 | CCCCCCCCCCN(CCCCCCCCCC)C(=O)CCCCCCCN(CCCCCO)CCCCCCCC(=O)N(CCCCCCCCCC)CCCCCCCCCC [Compound I-21, 8,8′-((5-hydroxypentyl)azanediyl)bis(N,N-didecyloctanamide)] | 29492 ± 4887 ng/g | 43216 ± 25636 ng/g | 48.78 ± 6.88 µg/mL | 220.38 ± 62.57 µg/mL
2 | 6.47 | CCCCCCCCCCN(CCCCCCCCCC)C(=O)CCCCCCCN(CCO)CCCCCCCC(=O)N(CCCCCCCCCC)CCCCCCCCCC [Compound I-22, 8,8′-((2-hydroxyethyl)azanediyl)bis(N,N-didecyloctanamide)] | 12829 ± 3326 ng/g | 38933 ± 23162 ng/g | 31.00 ± 9.33 µg/mL | 99.12 ± 18.03 µg/mL
3 | 6.48 | CCCCCCCCCCN(CCCCCCCCCC)C(=O)CCCCCCCN(CCCCO)CCCCCCCC(=O)N(CCCCCCCCCC)CCCCCCCCCC [Compound I-23, 8,8′-((4-hydroxybutyl)azanediyl)bis(N,N-didecyloctanamide)] | 15876 ± 7588 ng/g | 34202 ± 19178 ng/g | 43.34 ± 7.70 µg/mL | 103.91 ± 31.29 µg/mL
4 | 6.49 | CCCCCCCCCCN(CCCCCCCCN(CCCCCO)CCCCCCCCN(CCCCCCCCCC)C(=O)CCCCCCCCC)C(=O)CCCCCCCCC [Compound I-66, N,N′-(((5-hydroxypentyl)azanediyl)bis(octane-8,1-diyl))bis(N-decyldecanamide)] |  |  | 32.06 ± 5.07 µg/mL | 253.37 ± 52.48 µg/mL
5 | 6.18 | CCCCCCCCCCCCN(CCCCCCCCN(C)CCCCCCCCN(CCCCCCCCCCCC)C(=O)CCCCCCCCCCC)C(=O)CCCCCCCCCCC [Compound I-67, N,N′-((methylazanediyl)bis(octane-8,1-diyl))bis(N-dodecyldodecanamide)] |  |  | 7.19 ± 1.41 µg/mL | 62.94 ± 13.88 µg/mL
6 | 6.41 | CCCCCCCCCCCCN(CCCCCCCCN(CCCCCO)CCCCCCCCN(CCCCCCCCCCCC)C(=O)CCCCCCCCCCC)C(=O)CCCCCCCCCCC [Compound I-68, N,N′-(((5-hydroxypentyl)azanediyl)bis(octane-8,1-diyl))bis(N-dodecyldodecanamide)] |  |  | 12.30 ± 2.41 µg/mL | 121.93 ± 34.85 µg/mL
7 | 6.32 | CCCCCCCCCCN(CCCCCCCCN(C)CCCCCCCC(=O)N(CCCCCCCCCC)CCCCCCCCCC)C(=O)CCCCCCCCC [Compound I-73, N-decyl-N-(8-((8-(didecylamino)-8 oxooctyl)(methyl)amino)octyl)decanamide] |  |  | 27.72 ± 6.23 µg/mL | 213.39 ± 18.85 µg/mL
8 | 6.53 | CCCCCCCCCCN(CCCCCCCCN(CCCCCO)CCCCCCCC(=O)N(CCCCCCCCCC)CCCCCCCCCC)C(=O)CCCCCCCCC [Compound I-74, N-decyl-N-(8-((8-(didecylamino)-8-oxooctyl)(5-hydroxypentyl)amino)octyl)decanamide] |  |  | 50.16 ± 6.58 µg/mL | 292.44 ± 40.55 µg/mL
9 | 6.48 | CCCCCCCCCCN(CCCCCCCCCC)C(=O)CCCCCCN(C)CCCCCCC(=O)N(CCCCCCCCCC)CCCCCCCCCC [Compound I-75, 7,7′-(methylazanediyl)bis(N,N-didecylheptanamide)] |  |  | 84.87 ± 12.19 µg/mL | 343.06 ± 42.39 µg/mL
10 | 6.71 | CCCCCCCCCCN(CCCCCCCCCC)C(=O)CCCCCCCN(CCCCCCCC(=O)N(CCCCCCCCCC)CCCCCCCCCC)CCN(C)C [Compound I-77] |  |  | 17.45 ± 2.05 µg/mL | 
11 | 6.47 | CCCCCCCCCCN(CCCCCCCCCC)C(=O)C(F)CCCCCCN(CCCCCO)CCCCCCC(F)C(=O)N(CCCCCCCCCC)CCCCCCCCCC (stereo not shown) [Compound I-82, 8,8′-((5-hydroxypentyl)azanediyl)bis(N,N-didecyl-2-fluorooctanamide)] |  |  | 24.36 ± 4.39 µg/mL | 239.26 ± 39.80 µg/mL
12 | 6.12 | CCCCCCCCCCN(CCCCCCCCCC)C(=O)C(F)CCCCCCN(C)CCCCCCC(F)C(=O)N(CCCCCCCCCC)CCCCCCCCCC (stereo not shown) [Compound I-83, 8,8′-(methylazanediyl)bis(N,N-didecyl-2-fluorooctanamide)] |  |  | 12.94 ± 2.03 µg/mL | 142.26 ± 26.31 µg/mL
13 | 6.81 | CCCCCCCCCCN(CCCCCCCCCC)C(=O)CCCN(CCCCCO)CCCC(=O)N(CCCCCCCCCC)CCCCCCCCCC [Compound I-85, 4,4′-((5-hydroxypentyl)azanediyl)bis(N,N-didecylbutanamide)] |  |  | 10.74 ± 2.79 µg/mL | 
